Reference: the supplement of paper PMC10307832

How the values were obtained:
Test in all cases: relative viability (nuclei count vs DMSO), 5 days (fraction); higher = more cells survive
Elesclomol + Vorinostat = compound: CN(NC(=O)CC(=O)NN(C)C(=S)c1ccccc1)C(=S)c1ccccc1 [Elesclomol] + O=C(CCCCCCC(=O)Nc1ccccc1)NO [Vorinostat] (partner 1 µM)
Method in brief: (§1)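 Values are medians from duplicate plates. Each reflects relative viability, defined as the nuclei count of treated wells over that of vehicle wells. Lung cancer cell lines in 1536-well plates were pin-tool dosed one day after seeding with one drug alone or with a fixed anchor-drug dose plus five library-drug doses (not always all listed) in √10 steps, then fixed, stained and imaged at 4× after 5 days.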

Elesclomol + AZD7762 = compound: CN(NC(=O)CC(=O)NN(C)C(=S)c1ccccc1)C(=S)c1ccccc1 [Elesclomol] + NC(=O)Nc1cc(-c2cccc(F)c2)sc1C(=O)N[C@H]1CCCNC1 [AZD7762] (partner 0.2 µM)
Method in brief: as §1

Elesclomol + Lapatinib = compound: CN(NC(=O)CC(=O)NN(C)C(=S)c1ccccc1)C(=S)c1ccccc1 [Elesclomol] + CS(=O)(=O)CCNCc1ccc(-c2ccc3ncnc(Nc4ccc(OCc5cccc(F)c5)c(Cl)c4)c3c2)o1 [Lapatinib] (partner 2 µM)
Method in brief: as §1

Elesclomol + Trametinib = compound: CN(NC(=O)CC(=O)NN(C)C(=S)c1ccccc1)C(=S)c1ccccc1 [Elesclomol] + CC(=O)Nc1cccc(-n2c(=O)n(C3CC3)c(=O)c3c(Nc4ccc(I)cc4F)n(C)c(=O)c(C)c32)c1 [Trametinib] (partner 0.02 µM)
Method in brief: as §1

Elesclomol = compound: CN(NC(=O)CC(=O)NN(C)C(=S)c1ccccc1)C(=S)c1ccccc1 [Elesclomol]
Method in brief: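 Lung cancer cell lines in 1536-well plates were kept overnight at 37 °C, then pinned with five library-drug doses (not always all listed) spaced by √10 on vehicle-anchored plates. After 5 days without medium change, cells were fixed, permeabilised and Hoechst-stained in one step, imaged at 4×, and nuclei were counted with MetaXpress. Viability is treated-well nuclei divided by vehicle-well nuclei, taken as the median over plates. Plates passed only with control CV below 25% and at least one doubling.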

| Cell Line | relative viability (Elesclomol + Vorinostat; first compound 0.003162 µM) | relative viability (Elesclomol + Vorinostat; first compound 0.01 µM) | relative viability (Elesclomol + Vorinostat; first compound 0.03162 µM) | relative viability (Elesclomol + Vorinostat; first compound 0.1 µM) | relative viability (Elesclomol + AZD7762; first compound 0.003162 µM) | relative viability (Elesclomol + AZD7762; first compound 0.01 µM) | relative viability (Elesclomol + AZD7762; first compound 0.03162 µM) | relative viability (Elesclomol + AZD7762; first compound 0.1 µM) | relative viability (Elesclomol + Lapatinib; first compound 0.003162 µM) | relative viability (Elesclomol + Lapatinib; first compound 0.01 µM) | relative viability (Elesclomol + Lapatinib; first compound 0.03162 µM) | relative viability (Elesclomol + Lapatinib; first compound 0.1 µM) | relative viability (Elesclomol + Trametinib; first compound 0.003162 µM) | relative viability (Elesclomol + Trametinib; first compound 0.01 µM) | relative viability (Elesclomol + Trametinib; first compound 0.03162 µM) | relative viability (Elesclomol + Trametinib; first compound 0.1 µM) | relative viability (Elesclomol; 0.003162 µM) | relative viability (Elesclomol; 0.01 µM) | relative viability (Elesclomol; 0.03162 µM) | relative viability (Elesclomol; 0.1 µM) |
| --- | --- | --- | --- | --- | --- | --- | --- | --- | --- | --- | --- | --- | --- | --- | --- | --- | --- | --- | --- | --- |
| NCI-H650 | 0.539 | 0.38 | 0.184 | 0.132 | 1.23 | 0.848 | 0.387 | 0.23 | 0.805 | 0.373 | 0.195 | 0.289 | 1.02 | 0.709 | 0.265 | 0.191 | 1 | 0.696 | 0.332 | 0.249 |
| LCLC-97TM1 | 0.724 | 0.283 | 0.707 | 0.0661 | 0.234 | 0.158 | 0.16 | 0.0576 | 0.575 | 0.299 | 0.687 | 0.0906 | 0.198 | 0.192 | 0.195 | 0.0969 | 0.735 | 0.844 | 0.738 | 0.0887 |
| NCI-H2126 | 0.852 | 0.642 | 0.745 | 0.577 | 1.02 | 0.972 | 0.95 | 0.929 | 0.731 | 0.698 | 0.791 | 0.766 | 0.554 | 0.555 | 0.497 | 0.557 | 0.962 | 0.934 | 0.807 | 0.556 |
| 201T | 0.968 | 0.995 | 0.869 | 0.68 | 0.558 | 0.628 | 0.564 | 0.598 | 1.04 | 1.08 | 1.07 | 0.985 | 0.707 | 0.749 | 0.742 | 0.682 | 0.953 | 0.884 | 0.86 | 0.61 |
| NCI-H1915 | 0.517 | 0.324 | 0.573 | 0.205 | 0.716 | 0.663 | 0.659 | 0.368 | 0.986 | – | 0.948 | 0.78 | 0.301 | 0.242 | 0.305 | 0.118 | 0.994 | – | 1 | 0.606 |
| BEN | 0.585 | 0.563 | 0.448 | 0.385 | 0.654 | 0.54 | 0.38 | 0.294 | 0.577 | 0.335 | 0.247 | 0.197 | 0.915 | 0.65 | 0.749 | 0.395 | 0.937 | 0.677 | 0.344 | 0.307 |
| NCI-H2347 | 0.572 | 0.527 | 0.471 | 0.303 | 0.703 | 0.661 | 0.629 | 0.447 | 0.876 | 0.776 | 0.902 | 0.761 | 0.341 | 0.264 | 0.33 | 0.256 | 1.01 | 0.918 | 0.858 | 0.616 |
| H3255 | 0.843 | 0.62 | 0.426 | 0.44 | 0.818 | 0.773 | 0.584 | 0.521 | 0.246 | 0.265 | 0.207 | 0.232 | 0.585 | 0.532 | 0.328 | 0.284 | 0.879 | 0.785 | 0.566 | 0.442 |
